Consider 17 compounds from PMC4460047 (PLoS ONE, 2015).

Values joined by “and” are separate entries in the source; they are usually repeats but may differ in a detail not shown here. Equal values may be shown once. Marks after values point to notes of the source that are not given here.

A short description of data set [1]: Chemical stability in phosphate buffered saline pH 7.4. Format: physicochemical. Conditions: for %Compd at 6 h, pH 7.4: percent remaining after 6 h of incubation at 37°C in PBS buffer pH 7.4; for L- and D-aspartate derivatives produced by deamidation at the side chain: buffer pH 7.4, data not shown. The protocol:
(§1) The chemical and metabolic stability of PEA and all prodrugs were studied by incubating each compound (5 μL of a […] solution in DMSO, or DMSO as control) with 495 μL of 10 mM phosphate buffered saline pH 7.4 for chemical stability, 80% v/v rat plasma or 20% w/v rat liver homogenate prepared accordingly to previously described procedures for metabolic stability, reaching a final concentration of 50 nm for the test compound.
(§2) Rat plasma and liver samples were pre-incubated at 37°C for 10 min before adding the compounds. After incubation for different time periods (0, 15, 30, 60, 120, 240 and 360 min), samples were deproteinized by adding 100 μL of acetonitrile with 75 nmol L^-1 IS (PEA-d4). The samples were centrifuged (14 000 g, 10 min, 4°C), and the supernatants were analyzed by HPLC–ESI–MS/MS. For each tested compound, a multiple reaction monitoring (MRM) ESI–MS/MS method was set up in order to monitor the relative concentration of compound and released PEA at the different incubation times, compared to the time t = 0, in rat plasma and liver homogenate.

Data set [2] in a line: Stability and PEA release in 80% v/v rat plasma. Conditions: for half-life at 50 nM: rat, pH 7.4, 80% v/v rat plasma, read-out: Rat Plasma Compd t 1/2; for half-life at 50 nM / Rat Plasma Compd t 1/2: 50 nm compound; for remaining at 6 h, 50 nM: pH 7.4, read-out: Percent remaining after 6 h incubation in rat plasma. Format: in vitro ADME. The method, then: as §1, §2
Cmax and tmax in rat plasma were read from the raw data as the coordinates of the highest concentration observed. A Thermo TSQ Quantum triple-quadrupole mass spectrometer (Thermo Italia, Milan, Italy) with heated electrospray ionization (H-ESI) ion source was used for mass detection and analysis. Mass spectrometric analyses were done in positive ion mode. H-ESI interface parameters were set as follows: probe middle (D) position; capillary temperature 270°C; spray voltage 3.0 kV. Nitrogen was used as nebulizing gas at the following pressure: sheath gas 35 psi; auxiliary gas 15 arbitrary units (a.u.). Argon was used as the collision gas at a pressure of approximately 1.5 mtorr (1 torr = 133.3 Pa). For quantitative analysis, the following parent ion → product ions transitions were selected: PEA (1): m/z 300.2 → m/z 62.3 (tube lens 60 V; collision energy 19 eV); PEA-d4 (Internal Standard): m/z 304.2 → m/z 66.3 + m/z 287.2 (tube lens 72 V; collision energy 15, 12 eV). MRM transitions, tube lens voltages and collision energies for compounds 3–5, 7–9, 19–24, 26–31, and 33 are reported in the S1 File. […] The coefficients of correlation (r^2) were >0.99 for all curves. The LOQ was 1 nmol mL^−1 for all analytes. Extraction efficiency was determined by comparing the peak area ratio of spiked samples at three concentration levels (low, intermediate, and high) to those of extracted charcoal treated blank plasma spiked with the corresponding concentrations. The mean extraction recovery ranged from 109% to 91% for all compounds. The specificity of the assay was evaluated by comparison of HPLC–ESI–MS/MS chromatograms of the analytes at the LOQ to those of charcoal treated blank plasma samples in triplicate.

A short description of data set [3]: Stability in 20% w/v rat liver homogenate. Format: in vitro ADME. As to conditions: 37°C; for half-life at 50 nM / remaining at 2 h, 50 nM: rat, 20% w/v rat liver homogenate; for half-life at 50 nM: read-out: Rat Liver Compd t 1/2; for remaining at 2 h, 50 nM: read-out: Percent remaining after 2 h incubation in rat liver homogenate. The method, then: as §1, §2

`CCCCCCCCCCCCCCCC(=O)NCCOC(=O)[C@@H](N)CCC(N)=O.Cl` [compound 24, 2-(Palmitoylamino)ethyl L-glutaminate hydrochloride]: the “%Compd at 6 h, pH 7.4” value in data set [1] was 61 ± 3%. Moreover, the half-life at 50 nM in data set [2] (80% v/v rat plasma, 37°C) is 18 ± 1 min; in data set [3] (rat liver homogenate), ~80 min.
For the compound `CCCCCCCCCCCCCCCC(=O)NCCOC(=O)[C@@H](N)Cc1c[nH]c2ccccc12.Cl` [compound 22, 2-(Palmitoylamino)ethyl L-tryptophanate hydrochloride], the “%Compd at 6 h, pH 7.4” value in data set [1] was determined as 96 ± 1%. Further, in data set [2] (80% v/v rat plasma, 37°C), the “Rat Plasma Compd t 1/2” value is given as 4.5 ± 0.5 min and the half-life at 50 nM is ~5 min. Moreover, the half-life at 50 nM in data set [3] (rat liver homogenate) was ~36 min.
For `CCCCCCCCCCCCCCCC(=O)N[C@H](C)CO` [compound 31, (R)-α-methyl-PEA], the “%Compd at 6 h, pH 7.4” value in data set [1] turned out to be 95 ± 2%. The amount remaining at 6 h, 50 nM in data set [2] (80% v/v rat plasma, 37°C, 6 h) came to 82 ± 4%. Also, the fraction remaining at 2 h, 50 nM in data set [3] (2 h) worked out at 87 ± 1%.
For (S)-α-methyl-PEA [compound 30], the “%Compd at 6 h, pH 7.4” value in data set [1] was 96 ± 3%. The “Percent remaining after 6 h incubation in rat plasma” value in data set [2] (80% v/v rat plasma, 37°C, 6 h) was 80 ± 4% ^e. Further, the “Percent remaining after 2 h incubation in rat liver homogenate” value in data set [3] (2 h) came to 79 ± 6% ^f.
For the compound `CCCCCCCCCCCCCCCC(=O)NCCOC(=O)OCOC(C)=O` [compound 3, Acetoxymethyl 2-(palmitoylamino)ethyl carbonate], in data set [1], the “%Compd at 6 h, pH 7.4” value was determined as 86 ± 1%. For the same compound, the half-life at 50 nM in data set [2] (80% v/v rat plasma, 37°C) was < 1 min; in data set [3] (rat liver homogenate) it was < 1 min.
`CCCCCCCCCCCCCCCC(=O)NCCOC(=O)[C@@H](N)[C@@H](C)CC.Cl` [compound 21, 2-(Palmitoylamino)ethyl L-isoleucinate hydrochloride]: the “%Compd at 6 h, pH 7.4” value in data set [1] is given as 103 ± 6%. Besides, in data set [2] (rat plasma), the “Increase in plasma half-life relative to L-Ala-PEA” value is reported as 200 fold. The half-life at 50 nM in data set [2] (80% v/v rat plasma, 37°C) came to 205 ± 16 min. Also, the amount remaining at 2 h, 50 nM in data set [3] (2 h) worked out at 65 ± 5%.
As to `CCCCCCCCCCCCCCCC(=O)NCCOC(=O)C[C@H](N)C(=O)O.Cl` [compound 29, 4-(2-(Palmitoylamino)ethyl) L-aspartate hydrochloride], the “%Compd at 6 h, pH 7.4” value in data set [1] is reported as 83 ± 3%. Also, the half-life at 50 nM in data set [2] (80% v/v rat plasma, 37°C) amounted to 262 ± 35 min; in data set [3] (rat liver homogenate), 21 ± 1 min.
As to `CCCCCCCCCCCCCCCC(=O)NCCOC(=O)OCOC(=O)C1CCCCC1` [compound 5, (Cyclohexanelcarboxyloyloxy)methyl 2-(palmitoylamino)ethyl carbonate], the “%Compd at 6 h, pH 7.4” value in data set [1] is on record as 84 ± 1%. In data set [2] (80% v/v rat plasma, 37°C), the “Rat Plasma Compd t 1/2” value is 5.1 ± 0.5 min and the half-life at 50 nM worked out at 5 min. For the same compound, the half-life at 50 nM in data set [3] (rat liver homogenate) is 1.2 ± 0.2 min.
For the compound `CCCCCCCCCCCCCCCC(=O)NCCOC(=O)[C@H](C)N.Cl` [compound 19, 2-(palmitoylamino)ethyl L-alaninate hydrochloride], in data set [1], the “%Compd at 6 h, pH 7.4” value is 64 ± 5%. Further, the half-life at 50 nM in data set [2] (80% v/v rat plasma, 37°C) was ~1 min. Also, in data set [3] (rat liver homogenate), the “Rat Liver Compd t 1/2” value was found to be 1.4 ± 0.5 min and the half-life at 50 nM is ~1 min.
On to `CCCCCCCCCCCCCCCC(=O)NCCOC(=O)NCC(=O)O` [compound 7, N-(2-Palmitoylamino-ethyloxy)carbonyl-glycine], for which the “%Compd at 6 h, pH 7.4” value in data set [1] is 101 ± 1%. In data set [2] (80% v/v rat plasma, 37°C, 6 h), the fraction remaining at 6 h, 50 nM is 96 ± 4%. The half-life at 50 nM in data set [3] (rat liver homogenate) amounted to 23 ± 1 min.
Consider `CCCCCCCCCCCCCCCC(=O)N[C@H](C)COC(=O)[C@@H](N)C(C)C.Cl` [compound 33, (2R)-2-(palmitoylamino)propyl L-valinate hydrochloride], for which the “%Compd at 6 h, pH 7.4” value in data set [1] is 93 ± 4%. For the same compound, the “Rat plasma half-life relative to L-Val-PEA (20)” value in data set [2] (rat plasma) was 4 fold. In addition, the half-life at 50 nM turned out to be 190 ± 3 min in data set [2] (80% v/v rat plasma, 37°C) and 38 min in data set [3] (rat liver homogenate).
With `CCCCCCCCCCCCCCCC(=O)NCCOC(=O)[C@@H](N)CC(N)=O.Cl` [compound 23, 2-(Palmitoylamino)ethyl L-asparaginate hydrochloride], in data set [1], the “L- and D-aspartate derivatives produced by deamidation at the side chain” value is “about 1%”. Moreover, the “%Compd at 6 h, pH 7.4” value in data set [1] was 3% and 3.3 ± 0.3%. For the same compound, the half-life at 50 nM in data set [1] (phosphate buffered saline, pH 7.4, read-out: t 1/2 in buffered solution at pH 7.4) was ~3.3 min; in data set [2] (80% v/v rat plasma, 37°C) it was ~9 min; in data set [3] (rat liver homogenate), 24 ± 1 min.
With `CCCCCCCCCCCCCCCC(=O)NCCOC(=O)[C@@H](N)CC(=O)O.Cl` [compound 26, 1-(2-(Palmitoylamino)ethyl) L-aspartate hydrochloride], the “%Compd at 6 h, pH 7.4” value in data set [1] turned out to be 85 ± 4%. In addition, the half-life at 50 nM in data set [2] (80% v/v rat plasma, 37°C) was 172 ± 2 min. Also, in data set [3] (2 h), the share remaining at 2 h, 50 nM was 66 ± 5%.
For `CCCCCCCCCCCCCCCC(=O)NCCOC(=O)OCOC(=O)C(C)C` [compound 4, Isobutyroyloxymethyl 2-(palmitoylamino)ethyl carbonate], in data set [1], the “%Compd at 6 h, pH 7.4” value amounted to 84 ± 1%. The half-life at 50 nM is 1.1 ± 0.2 min in data set [2] (80% v/v rat plasma, 37°C) and < 1 min in data set [3] (rat liver homogenate).
In the case of `CCCCCCCCCCCCCCCC(=O)NCCOC(=O)[C@H](N)CC(N)=O.Cl` [compound 27, 2-(Palmitoylamino)ethyl D-asparaginate hydrochloride], in data set [1], the “L- and D-aspartate derivatives produced by deamidation at the side chain” value is “about 1%”; the “%Compd at 6 h, pH 7.4” value is 3.5 ± 0.3%. In addition, the half-life at 50 nM in data set [2] (80% v/v rat plasma, 37°C) was 14 ± 1 min. For the same compound, the half-life at 50 nM in data set [3] (rat liver homogenate) amounted to 55 ± 4 min.
As to `CCCCCCCCCCCCCCCC(=O)NCCOC(=O)N[C@H](C(=O)O)C(C)C` [compound 9, N-(2-Palmitoylamino-ethyloxy)carbonyl-L-valine], the “%Compd at 6 h, pH 7.4” value in data set [1] came to 99 ± 1%. Besides, the fraction remaining at 6 h, 50 nM in data set [2] (80% v/v rat plasma, 37°C, 6 h) worked out at 98 ± 1%. Moreover, the amount remaining at 2 h, 50 nM in data set [3] (2 h) was determined as 92 ± 5%.
As to `CCCCCCCCCCCCCCCC(=O)NCCOC(=O)N[C@@H](C)C(=O)O` [compound 8, N-(2-Palmitoylamino-ethyloxy)carbonyl-L-alanine], in data set [1], the “%Compd at 6 h, pH 7.4” value is reported as 103 ± 3%. In data set [2] (80% v/v rat plasma, 37°C, 6 h), the amount remaining at 6 h, 50 nM was 96 ± 2%. Besides, the half-life at 50 nM in data set [3] (rat liver homogenate) was determined as 29 ± 3 min.

For orientation: share remaining means what is left of the initial amount, in per cent.
